Test results published in ChEMBL document CHEMBL1147043, “Comparative metabolism of radiolabeled muraglitazar in animals and humans by quantitative and qualitative metabolite profiling” (Drug Metab Dispos, 2007).

Key:
[1] = Biodistribution in orally dosed cynomolgus monkey urine assessed as 17-hydroxy muraglitazar level by LC/MS analysis; assay type: ADME, organism-based, Macaca fascicularis; conditions: in vivo, po
Rattus norvegicus [2] = test: Biodistribution in orally dosed Sprague-Dawley rat urine assessed as muraglitazar glucuronide level by LC/MS analysis; assay type: ADME, organism-based; conditions: in vivo, po
[3] = Biodistribution in orally dosed cynomolgus monkey urine assessed as O-demethyl muraglitazar level by LC/MS analysis; assay type: ADME, organism-based, Macaca fascicularis; conditions: in vivo, po
[4] = Biodistribution in orally dosed Beagle dog feces assessed as acetylimide derivative of muraglitazar level by LC/MS analysis; assay type: ADME, organism-based, Canis lupus familiaris; conditions: in vivo, po
Hepatocyte [5] = test: Metabolic stability in Sprague-Dawley rat hepatocytes assessed as 12-hydroxy-O-demethyl muraglitazar level by LC/MS analysis relative to control; assay type: ADME, cell-based
Hepatocyte [6] = test: Metabolic stability in Sprague-Dawley rat hepatocytes assessed as 9-hydroxy-O-demethyl muraglitazar level by LC/MS analysis relative to control; assay type: ADME, cell-based
[7] = Metabolic stability in cynomolgus monkey hepatocytes assessed as 8-hydroxy-O-demethyl muraglitazar level by LC/MS analysis relative to control; assay type: ADME, cell-based, Macaca fascicularis, Hepatocyte
Hepatocyte [8] = test: Metabolic stability in human hepatocytes assessed as 12-hydroxy-O-demethyl muraglitazar level by LC/MS analysis relative to control; assay type: ADME, cell-based
Hepatocyte [9] = test: Metabolic stability in human hepatocytes assessed as 9-hydroxy-O-demethyl muraglitazar level by LC/MS analysis relative to control; assay type: ADME, cell-based
Hepatocyte [10] = test: Metabolic stability in human hepatocytes assessed as muraglitazar glucuronide level by LC/MS analysis relative to control; assay type: ADME, cell-based
Hepatocyte [11] = test: Metabolic stability in human hepatocytes assessed as hydroxyl-O-demethyl muraglitazar glucuronide level by LC/MS analysis relative to control; assay type: ADME, cell-based
[12] = Biodistribution in orally dosed human urine assessed as O-dealkyl-O-demethyl muraglitazar level by LC/MS analysis; assay type: ADME, organism-based; conditions: in vivo, po
[13] = Metabolic stability in CD1 mouse hepatocytes assessed as 9-hydroxy-O-demethyl muraglitazar level by LC/MS analysis relative to control; assay type: ADME, cell-based, Hepatocyte
[14] = Metabolic stability in CD1 mouse hepatocytes assessed as 12-hydroxy muraglitazar level by LC/MS analysis relative to control; assay type: ADME, cell-based, Hepatocyte
[15] = Metabolic stability in CD1 mouse hepatocytes assessed as muraglitazar glucuronide level by LC/MS analysis relative to control; assay type: ADME, cell-based, Hepatocyte
[16] = Metabolic stability in CD1 mouse hepatocytes assessed as 9-hydroxy muraglitazar level by LC/MS analysis relative to control; assay type: ADME, cell-based, Hepatocyte
[17] = Metabolic stability in CD1 mouse hepatocytes assessed as O-demethyl muraglitazar level by LC/MS analysis relative to control; assay type: ADME, cell-based, Hepatocyte
[18] = Metabolic stability in CD1 mouse hepatocytes assessed as O-demethyl muraglitazar glucuronide level by LC/MS analysis relative to control; assay type: ADME, cell-based, Hepatocyte
Hepatocyte [19] = test: Metabolic stability in Sprague-Dawley rat hepatocytes assessed as muraglitazar glucuronide level by LC/MS analysis relative to control; assay type: ADME, cell-based
[20] = Biodistribution in orally dosed cynomolgus monkey urine assessed as 12,17-dihydroxy muraglitazar level by LC/MS analysis; assay type: ADME, organism-based, Macaca fascicularis; conditions: in vivo, po
[21] = Biodistribution in orally dosed cynomolgus monkey urine assessed as 8-hydroxy muraglitazar level by LC/MS analysis; assay type: ADME, organism-based, Macaca fascicularis; conditions: in vivo, po
Rattus norvegicus [22] = test: Biodistribution in orally dosed Sprague-Dawley rat feces assessed as imide derivative of muraglitazar level by LC/MS analysis; assay type: ADME, organism-based; conditions: in vivo, po
[23] = Biodistribution in orally dosed human feces assessed as imide derivative of muraglitazar level by LC/MS analysis; assay type: ADME, organism-based; conditions: in vivo, po
[24] = Biodistribution in orally dosed Beagle dog feces assessed as 12-hydroxy muraglitazar level by LC/MS analysis; assay type: ADME, organism-based, Canis lupus familiaris; conditions: in vivo, po
[25] = Biodistribution in orally dosed cynomolgus monkey feces assessed as 12-hydroxy muraglitazar level by LC/MS analysis; assay type: ADME, organism-based, Macaca fascicularis; conditions: in vivo, po
[26] = Drug concentration in Beagle dog feces assessed as recovery of radioactive dose at 1.9 mg/kg, po after 168 hrs; assay type: ADME, organism-based, Canis lupus familiaris; parameters: dose 1.9 mg/kg, route oral; conditions: in vivo
[27] = Drug concentration in bile duct-cannulated cynomolgus monkey urine assessed as recovery of radioactive dose at 5 mg/kg, po after 48 hrs; assay type: ADME, organism-based, Macaca fascicularis; parameters: dose 5 mg/kg, route oral; conditions: in vivo
[28] = Metabolic stability in CD1 mouse hepatocytes assessed as radioactivity recovaries at 25.6 ug/mL after 4 hrs; assay type: ADME, cell-based, Hepatocyte
[29] = Metabolic stability in cynomolgus monkey hepatocytes assessed as radioactivity recovaries at 25.6 ug/mL after 4 hrs; assay type: ADME, cell-based, Macaca fascicularis, Hepatocyte
[30] = Fecal excretion rate in orally dosed Beagle dog within 24 hrs; assay type: ADME, organism-based, Canis lupus familiaris; conditions: faeces, po, read-out: Activity
[31] = Fecal excretion of compound in orally dosed cynomolgus monkey within 48 hrs; assay type: ADME, organism-based, Macaca fascicularis; conditions: faeces, po, read-out: Activity
[32] = Fecal excretion of compound in orally dosed human within 48 hrs; assay type: ADME, organism-based; conditions: faeces, po, read-out: Activity
Plasma [33] = test: Biodistribution in orally dosed cynomolgus monkey plasma assessed as muraglitazar glucuronide level after 1 hr by LC/MS analysis; assay type: ADME, organism-based, Macaca fascicularis; conditions: in vivo, po
Plasma [34] = test: Biodistribution in orally dosed Sprague-Dawley rat plasma assessed as O-demethyl muraglitazar level after 12 hrs by LC/MS analysis; assay type: ADME, organism-based; conditions: in vivo, po
Plasma [35] = test: Biodistribution in orally dosed human plasma assessed as O-demethyl muraglitazar level after 12 hrs by LC/MS analysis; assay type: ADME, organism-based; conditions: in vivo, po
[36] = Biodistribution in orally dosed human feces assessed as 8,12-dihydroxy muraglitazar level by LC/MS analysis; assay type: ADME, organism-based; conditions: in vivo, po
Rattus norvegicus [37] = test: Biodistribution in orally dosed Sprague-Dawley rat urine assessed as 12-hydroxy-O-demethyl muraglitazar level by LC/MS analysis; assay type: ADME, organism-based; conditions: in vivo, po
[38] = Biodistribution in orally dosed cynomolgus monkey urine assessed as 12-hydroxy-O-demethyl muraglitazar level by LC/MS analysis; assay type: ADME, organism-based, Macaca fascicularis; conditions: in vivo, po
[39] = Biodistribution in orally dosed human feces assessed as 12-hydroxy-O-demethyl muraglitazar level by LC/MS analysis; assay type: ADME, organism-based; conditions: in vivo, po
[40] = Drug concentration in bile duct-cannulated Sprague-Dawley rat bile assessed as recovery of radioactive dose at 11 mg/kg, po after 24 hrs; assay type: ADME, organism-based; parameters: dose 11 mg/kg, route oral; conditions: in vivo
[41] = Drug concentration in Sprague-Dawley rat urine assessed as recovery of radioactive dose at 11 mg/kg, po after 168 hrs; assay type: ADME, organism-based; parameters: dose 11 mg/kg, route oral; conditions: in vivo
[42] = Drug concentration in bile duct-cannulated CD1 mouse feces assessed as recovery of radioactive dose at 1 mg/kg, po after 24 hrs; assay type: ADME, organism-based; parameters: dose 1 mg/kg, route oral; conditions: in vivo
[43] = Drug concentration in bile duct-cannulated CD1 mouse urine assessed as recovery of radioactive dose at 40 mg/kg, po after 24 hrs; assay type: ADME, organism-based; parameters: dose 40 mg/kg, route oral; conditions: in vivo
[44] = Drug concentration in Beagle dog urine assessed as recovery of radioactive dose at 1.9 mg/kg, po after 168 hrs; assay type: ADME, organism-based, Canis lupus familiaris; parameters: dose 1.9 mg/kg, route oral; conditions: in vivo
Plasma [45] = test: Biodistribution in orally dosed cynomolgus monkey plasma assessed as […] muraglitazar level after 4 hrs by LC/MS analysis; assay type: ADME, organism-based, Macaca fascicularis; conditions: in vivo, po
Plasma [46] = test: Biodistribution in orally dosed Sprague-Dawley rat plasma assessed as muraglitazar 12-carboxylic acid level after 12 hrs by LC/MS analysis; assay type: ADME, organism-based; conditions: in vivo, po
Plasma [47] = test: Biodistribution in orally dosed Beagle dog plasma assessed as O-demethyl muraglitazar glucuronide level after 4 hrs by LC/MS analysis; assay type: ADME, organism-based, Canis lupus familiaris; conditions: in vivo, po
Plasma [48] = test: Biodistribution in orally dosed cynomolgus monkey plasma assessed as 12,17-dihydroxy muraglitazar level after 1 hr by LC/MS analysis; assay type: ADME, organism-based, Macaca fascicularis; conditions: in vivo, po
[49] = Biodistribution in orally dosed human feces assessed as 17-hydroxy-O-demethyl muraglitazar level by LC/MS analysis; assay type: ADME, organism-based; conditions: in vivo, po
[50] = Biodistribution in orally dosed cynomolgus monkey urine assessed as 9-hydroxy-O-demethyl muraglitazar level by LC/MS analysis; assay type: ADME, organism-based, Macaca fascicularis; conditions: in vivo, po
[51] = Biodistribution in orally dosed cynomolgus monkey urine assessed as O-dealkyl muraglitazar level by LC/MS analysis; assay type: ADME, organism-based, Macaca fascicularis; conditions: in vivo, po
[52] = Biodistribution in orally dosed cynomolgus monkey feces assessed as O-dealkyl muraglitazar level by LC/MS analysis; assay type: ADME, organism-based, Macaca fascicularis; conditions: in vivo, po

COc1ccc(OC(=O)N(CC(=O)O)Cc2ccc(OCCc3nc(-c4ccccc4)oc3C)cc2)cc1 [MURAGLITAZAR]
Drug uptake [1]: 0.59%
Drug uptake (Rattus norvegicus [2]): < 0.01%
Drug uptake [3]: 0.08%
Drug uptake [4]: 0.18%
Drug uptake (Hepatocyte [5]): < 0.2%
Drug uptake (Hepatocyte [6]): < 0.2%
Drug uptake [7]: < 0.2%
Drug uptake (Hepatocyte [8]): < 0.2%
Drug uptake (Hepatocyte [9]): < 0.2%
Drug uptake (Hepatocyte [10]): 1.1%
Drug uptake (Hepatocyte [11]): < 0.2%
Drug uptake [12]: 0.04%
Drug uptake [13]: 1.2%
Drug uptake [14]: 11%
Drug uptake [15]: 5.2%
Drug uptake [16]: 1.3%
Drug uptake [17]: 1.2%
Drug uptake [18]: < 0.2%
Drug uptake (Hepatocyte [19]): 0.5%
Drug uptake [20]: 0.13%
Drug uptake [21]: 0.12%
Drug uptake (Rattus norvegicus [22]): 2.63%
Drug uptake [23]: 2.46%
Drug uptake [24]: 1.1%
Drug uptake [25]: 7.24%
Drug uptake [26]: 89%
Drug uptake [27]: 5%
Stability [28]: 95.6%
Stability [29]: 99.2%
dose excreted at 24 h [30]: 85%
dose excreted at 48 h [31]: 30%
dose excreted at 48 h [32]: 25%
Drug uptake (Plasma [33]): 0.1%
Drug uptake (Plasma [34]): 3.5%
Drug uptake (Plasma [35]): 0.4%
Drug uptake [36]: 1.36%
Drug uptake (Rattus norvegicus [37]): 0.01%
Drug uptake [38]: 0.26%
Drug uptake [39]: 11.45%
Drug uptake [40]: 65.1%
Drug uptake [41]: 1%
Drug uptake [42]: 8.2%
Drug uptake [43]: 16.1%
Drug uptake [44]: 0.5%
Drug uptake (Plasma [45]): 1.3%
Drug uptake (Plasma [46]): < 0.05%
Drug uptake (Plasma [47]): 3%
Drug uptake (Plasma [48]): 1%
Drug uptake [49]: 1.48%
Drug uptake [50]: 0.18%
Drug uptake [51]: 1.04%
Drug uptake [52]: 2.81%
